# Results taken from US20180228861A1, “COMPOSITION FOR TREATING DIABETES AND DYSLIPIDEMIA OBTAINED FROM THE EXTRACT OF COSTUS PICTUS D.DON PLANT AND A METHOD OF PREPARING THE SAME” (ARJUNA NATURAL EXTRACTS, LTD., priority 2012, published 2018).
# Columns and labels:
# [1] = test system: streptozotocin-induced Type 1 diabetic model in Wistar rats; test: Antioxidant enzymes and TBARS in streptozotocin-induced diabetic rats; format: in vivo; conditions: extracts 40 mg/kg orally, glibenclamide 3 mg/kg orally
# Protocol: (§1) The study was conducted in adult male Wistar rats weighing 200-250 gm for a period of 40 days (30 days of treatment and 10 days of induction). The animals were randomly divided into seven groups comprising six each. Diabetes was induced in all the groups except the normal control group by the intra peritoneal administration of streptozotocin at 50 mg/kg. […] The effect of the different fractions was assessed by measuring the fasting blood glucose level, post prandial blood glucose level, serum insulin levels and glycosylated Hb. The anti hyperlipidemic effect was assessed by the estimation of total cholesterol, triglyceride, LDL cholesterol, HDL cholesterol, VLDL, muscle glycogen and liver glycogen. The antioxidant effects of the different extracts were assessed by the measuring TBARS, superoxide dismutase (SOD), catalase, reduced glutathione (GSH) and glutathione peroxidase levels (GPx). TBARS was determined by TBA assay (Ohkawa et al., 1979), SOD was measured using the nitroblue tetrazolium reduction method (Kakkar et al., 1984), Catalase was assayed using the method described by Aebi (1974). GPx was measured as described by Flohe and Gunzler (1984), GSH was measured as per the method of Jollow et al., (1974). Histopathological examination of pancreas was conducted to assess the antidiabetic effect of the different fractions of Costus pictus D. Don.
# isolated mouse islets = test: In vitro insulin secretogogue effect using isolated mouse islets; format: cell-based, mice (Swiss albino strain); conditions: 10 nM
# Excerpt: In vitro insulin secretogogue effect of the different fractions of Costus pictus D. Don using isolated mouse islets.
# Four to six weeks old male mice (Swiss albino strain; weighing 25±2 g) used for the study were maintained in the optimum environmental conditions.
# Pancreata isolated from animals which were euthanized with CO2 anesthesia according the method of Shewadae et al., (1999) was removed aspectically. Washed thrice with Hank's Balanced Salt Solution (HBSS) and were subjected to collagenase digestion at 37° C. The pancreata was incubated in the dissociation medium (Dulbecco's modified minimum essential medium (DMEM) supplemented with collagenase, Soybean Trypsin Inhibitor and Bovine Serum Albumin fraction V) for 10 minutes. The procedure was repeated thrice and the dissociation was stopped by addition of chilled DMEM with 10% fetal bovine serum to the pancreatic digest. The mixture was centrifuged at 200×g for 10 minutes and the supernatant was discarded. After two washings with DMEM, the pellet was seeded in culture flasks containing DMEM pH-7.2 supplemented with 10% fetal bovine serum. The flasks were incubated at 37° C. in a CO2 incubator.
# The viability of the islets was checked by Trypan blue dye exclusion test (Warburton and James, 1995) and this estimate had shown >98% of the cells were viable. […]
# [2] = test system: streptozotocin-induced Type 1 diabetic model in Wistar rats; test: Insulin and glycosylated Hb levels in streptozotocin-induced diabetic rats; format: in vivo; conditions: extracts 40 mg/kg orally, glibenclamide 3 mg/kg orally
# Protocol: as §1
structure (smiles),measurement,setting,value
COc1ccc(Cl)cc1C(=O)NCCc1ccc(S(=O)(=O)NC(=O)NC2CCCCC2)cc1 [glibenclamide],Catalase,[1],59.36 nM H2O2 decomposed/s/g
same,GPx,[1],7.54 U/mg of protein
same,GSH,[1],38.12 mg/100 g
same,SOD,[1],2.96 U/mg protein
same,TBARS,[1],0.80 mM MDA/100 g
same,Thirty minutes Concentration of insulin,isolated mouse islets; thirty minutes,3.77 ng/mL
same,Zero minutes Concentration of insulin,isolated mouse islets; zero minutes,0.97 ng/mL
same,Glycosylated Hb,[2],0.5 % total Hb
same,Insulin level,[2],13 μU/ml
